Assay results published in patent US20100310542A1, “Pharmaceutical Compositions for treating wouds and related methods” (HEALOR LTD., priority 2007, published 2010).

Legend:
[1] = test system: full thickness skin incisions; assay: incision wound healing in mice, percent of healed wounds; type: in vivo, C57BL/6J mice; conditions: agent alone, all formulations (A-C); daily, 7 days; vs groups treated with formulations alone
Experimental: In vivo incision wound generation and inducement of inflammation: Full thickness (20 mm long) skin incisions were performed on the upper back of anesthetized C57BL/6J mice (6 mice per group). […] the incision, wounds were treated daily with insulin (10^−6 M; 0.1 units/ml); pseudosubstrate PKCα peptide, 1 μM (PKCα inhibitor); or Insulin+PKCα inhibitor (Myr-pseudosubstrate PKCα peptide, 1 μM and insulin 0.1 units) applied directly on the wounds in the various formulations (Formulations A-C) as described above. After 7 days, wounds were excised and the percentage of healed wounds was evaluated by examining the morphology and histology of the wounds. Results are presented as percent of healed wounds relative to the total number of wounds per group. […] Full thickness (20 mm long) skin incisions were performed on the upper back of anesthetized C57BL/6J mice (6 mice per group). […] After 7 days, wounds were excised and the percentage of healed wounds was evaluated by examining the morphology and histology of the wounds. […]

[2] = test system: primary murine keratinocytes; assay: in vitro scratch assay, wound closure with insulin in Formulation C and D; type: cell-based; conditions: insulin 0.1 units/ml, 48 hours
Experimental: Murine keratinocytes were isolated and cultured as described above. After five days, confluent keratinocytes were subjected in vitro scratch assays to follow wound healing. Following wound formation Insulin (insulin 10^−6 M; 0.1 units/ml) was added to the cell cultures in the various formulations (Formulation C and D) described above. Wound closure was followed for 48 hours. This experiment was carried out in triplicate. Wound closure is presented as the percent of closure following 48 hours of treatment in FIG. 6B.
Cultures of 5 day old, confluent keratinocytes were subjected to in vitro scratch assays and wound healing was examined. Following wound formation, Insulin (10^−6 M; 0.1 units/ml) was added to cell cultures in the various formulations (Formulation C and D) as described above. Wound closure was followed for 48 hours. Experiments were carried out in triplicate. (A) Photographs of representative cell culture dishes are presented. (B) Wound closure is presented as percent of closure following 48 hours of treatment. (C) Proliferation assays were performed on cultured cells in the wound using the thymidine incorporation proliferation assay described above.

[3] = test system: primary murine keratinocytes; assay: cell proliferation by [3H]thymidine incorporation; type: cell-based; conditions: insulin 0.1 units/ml
Experimental: Cell proliferation: Cell proliferation was measured by [^3H]thymidine incorporation in 6 well plates. Cells were pulsed with [^3H]thymidine (3 μCi/ml) for 1 h. After incubation, cells were washed five times with PBS and 5% TCA was added into each well for 1 h. The solution was removed and cells were solubilized in 1 M NaOH. The labeled thymidine incorporated into cells was counted in a ^3H-window of TRI-CARB™ liquid scintillation counter.
Next, proliferation of cultured cells in the wound was evaluated utilizing thymidine incorporation (FIG. 6C). Cell proliferation was measured by [^3H]thymidine incorporation in 6 well plates. Cells were placed in […] and pulsed with [^3H]thymidine (3 μCi/ml) for 1 h. After incubation, cells were washed five times with PBS and 5% TCA was added to each well for 1 h. This solution was then removed and cells were solubilized in 1 M NaOH. The labeled thymidine incorporated into the cells was counted in the ^3H-window of a liquid scintillation counter. As shown in FIGS. 6A-C the addition of KCl changed insulin induced wound closure and cell proliferation.
Cultures of 5 day old, confluent keratinocytes were subjected to in vitro scratch assays and wound healing was examined. Following wound formation, Insulin (10^−6 M; 0.1 units/ml) was added to cell cultures in the various formulations (Formulation C and D) as described above. […]

[4] = test system: keratinocytes from the tails of adult mice; assay: cell proliferation, Rapid Cell Proliferation Kit, pre-incubation in medium B; type: cell-based; conditions: pre-incubation of cells in medium B for 24 hours vs treatment parallel to medium change
Experimental: Medium A and B are both EMEM eagle's minimal essential medium from Biological Industries (Israel) containing 8% CHELEX™ treated fetal bovine serum. CHELEX™ is a strong chelator which binds free Ca^2+ and Mg^2+ ions to prevent these ions from being bioavailable to the cultured cells. […] The influence of pre-incubation of keratinocytes in medium B on the effects of Insulin and Insulin+PKCα inhibitor on cell proliferation in vitro was evaluated. Cultures of 5 day old, confluent keratinocytes from the tails of adult mice (7-10 months up to 2 years) were allowed to proliferate in vitro. After 5 days in MEM (medium A), the growth medium was changed to medium B (described above). Parallel to the medium changing or 24 hours following it, cells were treated with Insulin or with Insulin+PKCα inhibitor. The proliferation rate of the cells was measured with the commercially available Rapid Cell Proliferation Kit (Cat. No. QIA127; Calbiochem). The Experiment was carried out in hexaplicate. Results are presented as percent of untreated cells (control). […] Cultures of 5 day old, confluent keratinocytes prepared from the tails of adult mice (7-10 months up to 2 years) were subjected to proliferation assays utilizing a commercially available Rapid Cell Proliferation Kit (Cat. No. QIA127; Calbiochem). After 5 days in MEM, the growth medium was changed to medium B as described above. […]

[5] = Formulation D (Tris + KCl 0.4 mg/ml)

Substance: Insulin: human recombinant insulin, identified as insulin, USP insulin or Ins USP
- healing of wounds (percent of healed wounds) [1]: did not promote wound healing efficacy
- wound closure in vitro ([2]; Formulation C (Tris)): inhibited insulin induced wound closure
- wound closure in vitro [2, 5]: induced partial wound closure
- cell proliferation (thymidine incorporation) ([3]; Formulation C (Tris)): inhibited insulin induced wound closure and cell proliferation
- cell proliferation (thymidine incorporation) [3, 5]: induced partial wound closure and cell proliferation
- effect on cell proliferation (percent of untreated cells) [4]: enhances the effects
